How the values were obtained:
[1] = system: OVCAR-3 human ovarian adenocarcinoma cells; test: OVCAR-3 tumor cell proliferation inhibition (CellTiter-Glo); format: cell-based; conditions: 3 d culture
Experimental: (§1) OVCAR-3 was purchased from ATCC; article No.: HTB-161; RPMI1640 was purchased from Gibco; article No.: 11875-093; Pancreatin (including EDTA) was purchased from Gibco; article No.: 25200-072; FBS was purchased from Gibco; Article No.: 10091-148; CellTiter-Glo was purchased from Promega; article No.: G7573; Bovine insulin was purchased from absin; article No.: abs9169; DMSO was purchased from VWR AMRESCO; article No.: 0231-500ML; Staurosporine was purchased from Selleck; article No.: S1421; a cell counter was purchased from CHEMOMETEC; model: NC-200; and a microplate reader was purchased from PerkinElmer; Model: Envison.
(§2) OVCAR-3 was human ovarian adenocarcinoma cells cultured in an RPMI-1640 culture medium containing 20% FBS and 0.01 mg/mL of Bovine insulin. Cells in logarithmic phase were taken, and the cells were subjected to digesting, collecting and counting with pancreatin-EDTA, 2000 OVCAR-3 cells/well were inoculated in a 384-well cell plate, and were cultured in 5% CO2 overnight. A 1000× compound stock solution with 3.16 times of gradient concentration was prepared with DMSO, and was diluted 100 times to 10× compound stock solution with a culture medium, and 10× compound stock solution was added into each cell culture well on the next day after cell inoculation, wherein the final concentration was 1×, and the DMSO content was 0.1%. The cell group was treated with DMSO as an experimental control (control), and the cell group was treated with 5 μM of Staurosporine as a blank control (blank).

[2] = system: HCC70 human breast ductal cancer cells; test: HCC70 tumor cell proliferation inhibition (CellTiter-Glo); format: cell-based; conditions: 3 d culture
Experimental: as §1, with “HCC70” for “OVCAR-3”, “CRL-2315;” for “HTB-161;”, “article” for “Article”, “10099-141C;” for “10091-148;”, “G7573;” for “G7573; Bovine insulin was purchased from absin; article No.: abs9169;”
as §2, with “HCC70” for “OVCAR-3”, “breast ductal cancer” for “ovarian adenocarcinoma”, “10% FBS.” for “20% FBS and 0.01 mg/mL of Bovine insulin.”

| IC50 [1] [nM] | Compound | IC50 [2] [nM] |
| --- | --- | --- |
| > 10000 | CN1CCC(F)(F)CN(C)C2CC[C@@H](C2)Nc2ncc(C(F)(F)F)c(n2)-c2c[nH]c3c(P(C)(C)=O)c(ccc23)C1=O [Compound Z86, (4^1S,4^3S)-1^7-(dimethylphosphoryl)-7,7-difluoro-5,10-dimethyl-2^5-(trifluoromethyl)-1^1H-3,5,10-triaza-1(3,6)-indola-2(4,2)-pyrimidina-4(1,3)-cyclopentanacycloundecaphan-11-one] | > 10000 |
|  | (4^3S)-1^7-(dimethylphosphoryl)-2^5-(trifluoromethyl)-1^1H-3,11-diaza-1(3,6)-indola-2(4,2)-pyrimidina-4(3,1)-piperidinacyclododecaphan-12-one [Compound Z61] | 390 |
|  | O=C1NCCCCN[C@H]2CCC(C2)Nc2ncc(C(F)(F)F)c(n2)-c2c[nH]c3c(Cl)c1ccc23 [Compound Z11, (4^1S,43S)-1^7-chloro-2^5-(trifluoromethyl)-1^1H-3,5,10-triaza-1(3,6)-indola-2(4,2)-pyrimidina-4(1,3)-cyclopentanacycloundecaphan-11-one] | 186 |
| 31.5 | CN1C[C@H](F)CCN[C@H]2CC[C@@H](C2)Nc2ncc(C(F)(F)F)c(n2)-c2c[nH]c3c(P(C)(C)=O)c(ccc23)C1=O (single isomer, unassigned) [Compound Z76] | 21.9 |
|  | CN1CCC(F)CN(C)C2CC[C@@H](C2)Nc2ncc(C(F)(F)F)c(n2)-c2c[nH]c3c(P(C)(C)=O)c(ccc23)C1=O (stereo partly shown) [Compound Z87, (4^1S)-1^7-(dimethylphosphoryl)-7-fluoro-5,10-dimethyl-2^5-(trifluoromethyl)-1^1H-3,5,10-triaza-1(3,6)-indola-2(4,2)-pyrimidina-4(1,3)-cyclopentanacycloundecaphan-11-one] | 243 |
|  | CP(C)(=O)c1c2ccc3c(c[nH]c13)-c1nc(ncc1C(F)(F)F)N[C@H]1CCC[C@@H](C1)NCCCCNC2=O [Compound Z9, (4^1S,4^3S)-1^7-(dimethylphosphoryl)-2^5-(trifluoromethyl)-1^1H-3,5,10-triaza-1(3,6)-indola-2(4,2)-pyrimidina-4(1,3)-cyclohexanacycloundecaphan-11-one] | 99.8 |
| 8.84 | CP(C)(=O)c1c2ccc3c(c[nH]c13)-c1nc(ncc1C(F)(F)F)N[C@H]1CC[C@@H](C1)NCC[C@H](F)CNC2=O (single isomer, unassigned) [Compound Z68-2] | 3.18 |
| 35.8 | CP(C)(=O)c1c2ccc3c(c[nH]c13)-c1nc(ncc1C(F)(F)F)N[C@H]1CC[C@@H](C1)NCC[C@@H](F)CNC2=O (single isomer, unassigned) [Compound Z68-1] | 10.3 |
| > 10000 | CN1CCC(F)CN(C)C2CC[C@@H](C2)Nc2ncc(C(F)(F)F)c(n2)-c2c[nH]c3c(P(C)(C)=O)c(ccc23)C1=O (stereo partly drawn) [Compound Z89, (41S)-1^7-(dimethylphosphoryl)-7-fluoro-5,10-dimethyl-2^5-(trifluoromethyl)-1^1H-3,5,10-triaza-1(3,6)-indola-2(4,2)-pyrimidina-4(1,3)-cyclopentanacycloundecaphan-11-one] | > 10000 |
| 15.9 | CN1CCCCNC2CCC(C2)Nc2ncc(C(F)(F)F)c(n2)-c2c[nH]c3c(P(C)(C)=O)c(ccc23)C1=O (stereo not shown) [Compound Z62, (41 S,4^3S)-1^7-(dimethylphosphoryl)-10-methyl-2^5-(trifluoromethyl)-1^1H-3,5,10-triaza-1(3,6)-indola-2(4,2)-pyrimidina-4(1,3)-cyclopentanacycloundecaphan-11-one] | 24.6 |
| 62.6 | CN1C[C@H](F)CCN(C)[C@H]2CC[C@@H](C2)Nc2ncc(C(F)(F)F)c(n2)-c2c[nH]c3c(P(C)(C)=O)c(ccc23)C1=O [Compound Z78, (4^1S,4^3S,8R)-1^7-(dimethylphosphoryl)-8-fluoro-5,10-dimethyl-2^5-(trifluoromethyl)-1^1H-3,5,10-triaza-1(3,6)-indola-2(4,2)-pyrimidina-4(1,3)-cyclopentanacycloundecaphan-11-one] | 44 |
|  | CP(C)(=O)c1c2ccc3c(c[nH]c13)-c1nc(ncc1C(F)(F)F)N[C@H]1CC[C@@H](C1)NCCCCCCNC2=O [Compound Z59, (4^1S,4^3S)-1^7-(dimethylphosphoryl)-2^5-(trifluoromethyl)-1^1H-3,5,12-triaza-1(3,6)-indola-2(4,2)-pyrimidina-4(1,3)-cyclopentanacyclotridecaphan-13-one] | 422 |
|  | CP(C)(=O)c1c2ccc3c(c[nH]c13)-c1nc(ncc1C(F)(F)F)N[C@H]1CC[C@@H](C1)NCCCNC2=O [Compound Z10, (4^1S, 4^3S)-1^7-(dimethylphosphoryl)-2^5-(trifluoromethyl)-1^1H-3,5,9-triaza-1(3,6)-indola-2(4,2)-pyrimidina-4(1,3)-cyclopentanacyclodecaphan-10-one] | 162 |
|  | CC1CCCNC(=O)c2ccc3c(c[nH]c3c2P(C)(C)=O)-c2nc(ncc2C(F)(F)F)N[C@H]2CC[C@@H](C2)N1 (stereo partly shown) [Compound Z58, (4^1S,4^3S)-1^7-(dimethylphosphoryl)-6-methyl-2^5-(trifluoromethyl)-1^1H-3,5,10-triaza-1(3,6)-indola-2(4,2)-pyrimidina-4(1,3)-cyclopentanacycloundecaphan-11-one] | 233 |
|  | CN1CCC(F)CN(C)C2CC[C@@H](C2)Nc2ncc(C(F)(F)F)c(n2)-c2c[nH]c3c(P(C)(C)=O)c(ccc23)C1=O (stereo partly shown) [Compound Z88, (4^1S)-1^7-(dimethylphosphoryl)-7-fluoro-5,10-dimethyl-2^5-(trifluoromethyl)-1^1H-3,5,10-triaza-1(3,6)-indola-2(4,2)-pyrimidina-4(1,3)-cyclopentanacycloundecaphan-11-one] | 241 |
|  | CP(C)(=O)c1c2ccc3c(c[nH]c13)-c1nc(ncc1C(F)(F)F)N[C@H]1CC[C@@H](C1)NCCCCCNC2=O [Compound Z6, (41 S,4^3S)-1^7-(dimethylphosphoryl)-2^5-(trifluoromethyl)-1^1H-3,5,11-triaza-1(3,6)-indola-2(4,2)-pyrimidina-4(1,3)-cyclopentanacyclododecaphan-12-one] | 222 |
|  | CN1CCCCNC(=O)c2ccc3c(c[nH]c3c2P(C)(C)=O)-c2nc(ncc2C(F)(F)F)N[C@H]2CC[C@H]1C2 [Compound Z16, (4^1S,43S)-1^7-(dimethylphosphoryl)-5-methyl-2^5-(trifluoromethyl)-1^1H-3,5,10-triaza-1(3,6)-indola-2(4,2)-pyrimidina-4(1,3)-cyclopentanacycloundecaphan-11-one] | 23 |
|  | CP(C)(=O)c1c2ccc3c(c[nH]c13)-c1nc(ncc1C(F)(F)F)N[C@H]1CC[C@@H](C1)NCCC(F)(F)CNC2=O [Compound Z19, (4^1S,43S)-17-(dimethylphosphoryl)-8,8-difluoro-2^5-(trifluoromethyl)-1^1H-3,5,10-triaza-1(3,6)-indola-2(4,2)-pyrimidina-4(1,3)-cyclopentanacycloundecaphan-11-one] | 15.4 |
|  | CN1CCOCCNC2CCC(C2)Nc2ncc(C(F)(F)F)c(n2)-c2c[nH]c3c(S(C)(=O)=O)c(ccc23)C1=O (stereo not shown) [Compound Z72, (4^1S,4^3S)-11-methyl-1^7-(methylsulfonyl)-2^5-(trifluoromethyl)-1^1H-8-oxa-3,5,11-triaza-1(3,6)-indola-2(4,2)-pyrimidina-4(1,3)-cyclopentanacyclododecaphan-12-one] | 869 |
|  | CN1CCOCCNC(=O)c2ccc3c(c[nH]c3c2P(C)(C)=O)-c2nc(ncc2C(F)(F)F)NC2CCC1C2 [Compound Z60, (4^1S,43S)-17-(dimethylphosphoryl)-5-methyl-2^5-(trifluoromethyl)-1^1H-8-oxa-3,5,11-triaza-1(3,6)-indola-2(4,2)-pyrimidina-4(1,3)-cyclopentanacyclododecaphan-12-one] | 89 |
|  | CN1CCCCN(C)[C@H]2CC[C@@H](C2)Nc2ncc(C(F)(F)F)c(n2)-c2c[nH]c3c(P(C)(C)=O)c(ccc23)C1=O [Compound Z27, (4^1S,4^3S)-1^7-(dimethylphosphoryl)-5,10-dimethyl-2^5-(trifluoromethyl)-1^1H-3,5,10-triaza-1(3,6)-indola-2(4,2)-pyrimidina-4(1,3)-cyclopentanacycloundecaphan-11-one] | 9.7 |

Reference: patent US20250145632A1, “Pyrimidine Heterocyclic Compound, Preparation Method Thereof and use Thereof in Medicine” (INSILICO MEDICINE IP LIMITED, priority 2021, published 2025)
